{"source": "patent US7947854B2", "about": "“Bis-cationic compounds and use thereof” (The University of Sydney, priority 2003, dated 2011)", "key": {"[1]": {"tested_on": "MRSA (methicillin resistant S. aureus)", "assay": "In vitro antibacterial activity, NCCLS M7-A6", "type": "cell-based", "conditions": "Staphylococcus aureus, read-out: MIC MRSA (methicillin resistant S. aureus)", "description": "(§1) Two bis-cationic compounds were tested for antibacterial activity. The assay used was that published by the National Committee for Clinical Laboratory Standards. 2003. Methods for Dilution Antimicrobial Susceptibility Tests for Bacteria That Grow Aerobically: Approved Standard—Sixth Edition. NCCLS document M7-A6. Villanova, Pa., USA."}, "Escherichia coli 25922": {"tested_on": "Escherichia coli 25922", "assay": "In vitro antibacterial activity, NCCLS M7-A6", "type": "cell-based", "description": "as §1"}, "[2]": {"tested_on": "Pseudomonas ariginosa 122", "assay": "In vitro antibacterial activity, NCCLS M7-A6", "type": "cell-based", "description": "as §1"}, "[3]": {"tested_on": "Streptococcus pneumonia 49619", "assay": "In vitro antibacterial activity, NCCLS M7-A6", "type": "cell-based", "conditions": "Streptococcus pneumoniae", "description": "as §1"}, "[4]": {"tested_on": "Staphylococcus aureus 25923", "assay": "In vitro antibacterial activity, NCCLS M7-A6", "type": "cell-based", "description": "as §1"}, "[5]": {"tested_on": "VRE (Vancomycin resistant Enterococcus)", "assay": "In vitro antibacterial activity, NCCLS M7-A6", "type": "cell-based", "description": "as §1"}, "[6]": {"tested_on": "cytosolic phospholipase B (PLB activity)", "assay": "Radiometric assay, cytosolic PLB activity", "type": "biochemical, Cryptococcus neoformans H99", "conditions": "pH 4", "description": "(§2) Fungal isolates and media. […] Isolate H99 was kindly supplied by Dr. Gary Cox (Duke University Medical Center, Durham, N.C., USA), and subcultured onto Sabouraud dextrose agar (SDA) at 30° C.\n(§3) Cellular disruption to prepare membrane and cytosolic fractions. The cell pellet from the preparation of the supernatant, above, was also frozen at −70° C. After washing twice with imidazole buffer, it was disrupted in the presence of a protease inhibitor cocktail (P 8215 for fungal and yeast cells; 4-(2-aminoethyl)benzenesulfonyl fluoride hydrochloride, 100 mM, 1,10-phenanthroline, 500 mM, pepstatin A, 2.2 mM, E-64, 1.4 mM; Sigma) in a MiniBeadbeater-8 Cell Disrupter (MBB-8; Daintree Scientific, Tasmania, Australia) for three cycles of 1 min, alternating with a 1 min cooling period on ice. The homogenate was centrifuged at 14,000 g for 15 min to obtain the membrane (pellet) and the cytosolic (supernatant) fractions.\nRadiometric assay method for phospholipases. Enzyme activities were measured as described previously in a final volume of 125 μL at 37° C. For the determination of secreted PLB activity, carrier dipalmitoyl phosphatidylcholine (DPPC, final concentration 800 μM) and 1,2-di[1-^14C] palmitoyl phosphatidylcholine (20,000 dpm) were dried under nitrogen and suspended in 125 mM imidazole acetate buffer (assay buffer, pH 4.0) by sonication using a Branson 450 sonifier. The reaction time was 22 min, using 1 μg total protein and PLB activity was determined by the rate of decrease of the radiolabelled PC substrate, with appearance of the label in free fatty acid. This assay also simultaneously allows for the determination of phospholipase A, C and D activities. These activities were measured by the appearance of radiolabel from PC in Lyso PC, diacylglycerol and phosphatidic acid, respectively.\n(§4) All reactions were terminated by adding 0.5 mL of chloroform:methanol (2:1 v/v). The reaction products were extracted by the method as disclosed in Bligh, E. C. and W. J. Dyer. 1959 ‘A rapid method of total lipid extraction and purification.’ Can. J. Biochem. Physiol. 37:911-917, separated by TLC and quantified as previously described. In the case of PLC activity, the TLC plates were developed in petroleum ether (BP 60-80° C.): diethyl ether: acetic acid (90:15:1, v/v/v) instead of chloroform:methanol:water (65:25:4, v/v/v).\n(§5) All experiments were carried out in duplicate or triplicate. The effects of pH on the various phospholipase activities were measured using 50 mM final concentration of imidazole-acetate buffer (pH range 3-5), MES buffer (pH range 6-8) and glycine buffer (pH 9-10). Controls for non-enzymic breakdown of substrates were included at all pH values. Cations, Triton X-100 and metal chelators were made up as stock solutions in water and diluted to the final concentration in the appropriate assay buffer.\nPreparation of inhibitors and use in assays. The following compounds were tested (for structures, see FIG. 2): compound 1, 1,12-bis(tributylphosphonium)dodecane dibromide (Fluka AG, Buchs, Switzerland); compound 2, 1,10-bis(tributylammonium)-decane dibromide; compound 3, 1,12-bis(tributylammonium)do-decane dibromide (both synthesised in-house); compound 4, 1,10-bis(trimethylammonium)decane dibromide [“decamethonium”] (Sigma, St. Louis Mo., USA). All compounds were prepared as stock solutions of 700 μM in assay buffer containing 5 mM EDTA, which was then diluted serially with buffer to obtain solutions of 70, 7, 0.7 and 0.07 μM. In each assay, 45 μL of these solutions was used, and the final volume of 125 μL was made up of substrate, enzyme and buffer. The radiometric assay was carried out as above."}, "[7]": {"tested_on": "membrane-associated phospholipase B (LPL/LPTA activities)", "assay": "Radiometric assay, membrane-associated LPL/LPTA activities", "type": "biochemical, Cryptococcus neoformans H99", "conditions": "pH 4", "description": "as §2, §3\nSecreted LPL and LPTA activities were measured simultaneously in a reaction mixture containing 1-[^14C]palmitoyl lyso-PC (25,000 dpm) and carrier lyso-PC (final concentration 200 μM) in assay buffer. The reaction time was […] with 1 μg of total protein and LPL activity was measured by the rate of loss of 1-[^14C]palmitoyl lyso-PC with release of radiolabelled fatty acids. LPTA activity was estimated from the rate of formation of radiolabelled PC.\nas §4, §5\nPreparation of inhibitors and use in assays. The following compounds were tested (for structures, see FIG. 2): compound 1, 1,12-bis(tributylphosphonium)dodecane dibromide (Fluka AG, Buchs, Switzerland); compound 2, 1,10-bis(tributylammonium)-decane dibromide; compound 3, 1,12-bis(tributylammonium)do-decane dibromide (both synthesised in-house); compound 4, 1,10-bis(trimethylammonium)decane dibromide [“decamethonium”] (Sigma, St. Louis Mo., USA). All compounds were prepared as stock solutions of 700 μM in assay buffer containing 5 mM EDTA, which was then diluted serially with buffer to obtain solutions of 70, 7, 0.7 and 0.07 μM. In each assay, 45 μL of these solutions was used, and the final volume of 125 μL was made up of substrate, enzyme and buffer. The radiometric assay was carried out as above. Inhibition was calculated as the percent of substrates (DPPC or Lyso-PC) remaining in the case of PLB and LPL activities, or of DPPC produced, in the case of the LPTA activity. The amounts converted, or produced, in the inhibitor-free control were normalised to 100%, and the inhibition calculated against it. All assays were done in triplicate.\nUnder these conditions only PLB, LPL and LPTA activities (both secreted and cell-associated) were measured. Initially, compounds deemed to be potential inhibitors were assayed at 25 and 250 μM."}}, "note": "Where “and” joins values, the source holds several entries; their conditions need not be identical. Equal values may be shown once. Marks after values point to notes of the source that are not given here."}
{"smiles": "CCCC[N+](CCCC)(CCCC)CCCCCCCCCCCC[N+](CCCC)(CCCC)CCCC", "note": "[1,12-Bis-(tributylammonium)dodecane dichloride]", "values": [{"measurement": "MIC", "setting": "[1]", "result": "3.3 µg/mL and 5.5 µM"}, {"measurement": "MIC", "setting": "Escherichia coli 25922", "result": "13.4 µg/mL and 22 µM"}, {"measurement": "MIC", "setting": "[2]", "result": "48 µg/mL and 80 µM"}, {"measurement": "MIC", "setting": "[3]", "result": "0.73 µg/mL and 1.2 µM"}, {"measurement": "MIC", "setting": "[4]", "result": "3.3 µg/mL and 5.5 µM"}, {"measurement": "MIC", "setting": "[5]", "result": "1.6 µg/mL and 2.7 µM"}]}
{"smiles": "CCCC[P+](CCCC)(CCCC)CCCCCCCCCCCC[P+](CCCC)(CCCC)CCCC", "note": "[Compound 1, 1,12-bis(tributylphosphonium)dodecane dibromide]", "values": [{"measurement": "% Inhibition PLB, Cytosolic Enzyme", "setting": "[6]; 2.5 μM", "result": 0, "unit": "%"}, {"measurement": "% Inhibition PLB, Cytosolic Enzyme", "setting": "[6]; 25 μM", "result": 0, "unit": "%"}, {"measurement": "% Inhibition PLB, Cytosolic Enzyme", "setting": "[6]; 250 μM", "result": "41.3* %"}, {"measurement": "% Inhibition LPL, Membrane-bound Enzyme", "setting": "[7]; 2.5 μM", "result": 0, "unit": "%"}, {"measurement": "% Inhibition LPTA, Membrane-bound Enzyme", "setting": "[7]; 2.5 μM", "result": 0, "unit": "%"}, {"measurement": "% Inhibition LPL, Membrane-bound Enzyme", "setting": "[7]; 25 μM", "result": 0, "unit": "%"}, {"measurement": "% Inhibition LPTA, Membrane-bound Enzyme", "setting": "[7]; 25 μM", "result": 0, "unit": "%"}, {"measurement": "% Inhibition LPL, Membrane-bound Enzyme", "setting": "[7]; 250 μM", "result": 0, "unit": "%"}, {"measurement": "% Inhibition LPTA, Membrane-bound Enzyme", "setting": "[7]; 250 μM", "result": 0, "unit": "%"}]}
